In patent US20240239775A1, “FXR REGULATOR, PREPARATION METHOD THEREFOR, PHARMACEUTICAL COMPOSITION THEREOF AND USE THEREOF” (QINGDAO RUIJI MEDICAL TECHNOLOGY CO., LTD., priority 2021, published 2024):

What was measured:
FXR = target: T1, FXR (Homo sapiens, UniProt Q96RI1); test: FXR antagonist screening by TR-FRET (LanthaScreen TR-FRET FXR co-activation assay kit); assay type: biochemical; settings: Table 1.1, FXR antagonistic activity; TR-FRET with CDCA; geometric means of at least two independent runs
T1 construct: 5 μL of 20 nM FXR-LBD Complete Coregulator buffer G; purchased ThermoFisher PV4833
T1 sequence (Q96RI1 262-486 limits assumed): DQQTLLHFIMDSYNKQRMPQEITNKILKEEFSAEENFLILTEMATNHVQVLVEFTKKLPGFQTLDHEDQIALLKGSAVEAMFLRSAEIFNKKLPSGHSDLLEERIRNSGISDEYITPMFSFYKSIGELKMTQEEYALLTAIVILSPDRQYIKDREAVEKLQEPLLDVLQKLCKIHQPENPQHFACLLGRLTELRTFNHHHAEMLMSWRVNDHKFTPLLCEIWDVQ
Method in brief: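 FXR-LBD (20 nM working solution) mixed with compound, CDCA (200 μM working solution) as agonist, Fluorescein-SRC2-2 and Tb-anti-GST antibody in Coregulator buffer G; 10 h at room temperature. Coactivator recruitment read by TR-FRET, triplicate wells.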

| Structure (SMILES) | IC50 (FXR) | melting point |
| --- | --- | --- |
| CC(=O)N1CCN(c2ccccc2N(CCc2ccccc2)S(=O)(=O)c2ccc3oc(C(=O)O)c(C)c3c2)CC1 [Example F27-S91, 3-methyl-5-(N-(2-(4-acetylpiperazin-1-yl)phenyl)-N-phenethylsulfamoyl)benzofuran-2-carboxylic acid] | 50 to 100 µM | 196 to 197 °C |
| Cc1c(C(=O)O)oc2ccc(S(=O)(=O)N(CCc3ccccc3)Cc3ccc(N4CCOCC4)cc3)cc12 [Example F27-S79] | 50 to 100 µM | > 380 °C (dec.) |
| Cc1c(C(=O)O)oc2ccc(S(=O)(=O)N(CCc3ccccc3)c3ccccc3N3CCNCC3)cc12 [Example F27-S89, 3-methyl-5-(N-phenethyl-N-(2-(piperazin-1-yl)phenyl)sulfamoyl)benzofuran-2-carboxylic acid] | 50 to 100 µM | 172 to 173 °C |
| Cc1c(C(=O)O)oc2ccc(S(=O)(=O)N(CCc3ccccc3)c3ccccc3N3CCN(S(C)(=O)=O)CC3)cc12 [Example F27-S93, 3-methyl-5-(N-(2-(4-(methylsulfonyl)piperazin-1-yl)phenyl)-N-phenethylsulfamoyl)benzofuran-2-carboxylic acid] | 10 to 50 µM | 144 to 145 °C |
| Cc1c(C(=O)O)oc2ccc(S(=O)(=O)N(CCc3ccccc3)c3ccccc3N3CCN(C(=O)N(C)C)CC3)cc12 [Example F27-S92, 3-methyl-5-(N-(2-(4-(dimethylcarbamoyl)piperazin-1-yl)phenyl)-N-phenethylsulfamoyl)benzofuran-2-carboxylic acid] | 10 to 50 µM | > 380 °C (dec.) |
| Cc1c(C(=O)O)oc2ccc(S(=O)(=O)N(CCc3ccccc3)c3ccc(N4CCN(C(=O)N(C)C)CC4)cc3)cc12 [Example F27-S71, 3-methyl-5-(N-(4-(4-(dimethylcarbamoyl)piperazin-1-yl)phenyl)-N-phenethylsulfamoyl)benzofuran-2-carboxylic acid] | 50 to 100 µM | 192 to 193 °C |
| Cc1c(C(=O)O)oc2ccc(S(=O)(=O)N(CCc3ccccc3)Cc3ccccc3[N+](=O)[O-])cc12 [Example F27-S19, 3-methyl-5-(N-(2-nitrobenzyl)-N-phenethylsulfamoyl)benzofuran-2-carboxylic acid] | 10 to 50 µM | 180 to 181 °C |
| Cc1c(C(=O)O)oc2ccc(S(=O)(=O)N(CCc3ccccc3)Cc3ccc(C(F)(F)F)cc3F)cc12 [Example F27-S55, 3-methyl-5-(N-(2-fluoro-4-(trifluoromethyl)benzyl)-N-phenethylsulfamoyl)benzofuran-2-carboxylic acid] | 50 to 100 µM | 174 to 175 °C |
| Cc1c(C(=O)O)oc2ccc(S(=O)(=O)N(CCc3ccccc3)Cc3ccc(C(F)(F)F)cc3C(F)(F)F)cc12 [Example F27-S58, 3-methyl-5-(N-(2,4-bis(trifluoromethyl)benzyl)-N-phenethylsulfamoyl)benzofuran-2-carboxylic acid] | 50 to 100 µM | 155 to 156 °C |
| Cc1c(C(=O)O)oc2ccc(S(=O)(=O)N(CCc3ccccc3)Cc3ccc(-c4ccccc4C#N)cc3)cc12 [Example F27-S83] | 10 to 50 µM | 197 to 198 °C |
| CC(=O)N1CCN(c2ccc(N(CCc3ccccc3)S(=O)(=O)c3ccc4oc(C(=O)O)c(C)c4c3)cc2)CC1 [Example F27-S68, 3-methyl-5-(N-(4-(4-acetylpiperazin-1-yl)phenyl)-N-phenethylsulfamoyl)benzofuran-2-carboxylic acid] | 50 to 100 µM | 183 to 184 °C |
| Cc1c(C(=O)O)oc2ccc(S(=O)(=O)N(CCc3ccccc3)Cc3ccc(F)cc3)cc12 [Example F27-S28, 3-methyl-5-(N-(4-fluorobenzyl)-N-phenethylsulfamoyl)benzofuran-2-carboxylic acid] | 10 to 50 µM | 188 to 189 °C |
| Cc1c(C(=O)O)oc2ccc(S(=O)(=O)N(CCc3ccccc3)Cc3ccccc3F)cc12 [Example F27-S14, 3-methyl-5-(N-(2-fluorobenzyl)-N-phenethylsulfamoyl)benzofuran-2-carboxylic acid] | 0.1 to 10 µM | > 380 °C (dec.) |
| Cc1c(C(=O)O)oc2ccc(S(=O)(=O)N(CCc3ccccc3)Cc3ccc4ccccc4c3)cc12 [Example F27-S45, 3-methyl-5-(N-(naphthalen-2-ylmethyl)-N-phenethylsulfamoyl)benzofuran-2-carboxylic acid] | 10 to 50 µM | > 380 °C (dec.) |
| Cc1c(C(=O)O)oc2ccc(S(=O)(=O)N(CCc3ccccc3)Cc3c(F)cccc3F)cc12 [Example F27-S46, 3-methyl-5-(N-(2,6-difluorobenzyl)-N-phenethylsulfamoyl)benzofuran-2-carboxylic acid] | 10 to 50 µM | 180 to 181 °C |
| Cc1c(C(=O)O)oc2ccc(S(=O)(=O)N(CCc3ccccc3)Cc3ccc(-c4ccccc4)cc3)cc12 [Example F27-S82, 3-methyl-5-(N-([1,1′-biphenyl]-4-ylmethyl)-N-phenethylsulfamoyl)benzofuran-2-carboxylic acid] | 50 to 100 µM | > 380 °C (dec.) |
| Cc1c(C(=O)O)oc2ccc(S(=O)(=O)N(CCc3ccccc3)Cc3c(F)cccc3Cl)cc12 [Example F27-S47, 3-methyl-5-(N-(2-fluoro-6-chlorobenzyl)-N-phenethylsulfamoyl)benzofuran-2-carboxylic acid] | 0.1 to 10 µM | 195 to 196 °C |
| Cc1c(C(=O)O)oc2ccc(S(=O)(=O)N(CCc3ccccc3)Cc3ccc(C(=O)O)cc3)cc12 [Example F27-S39, 3-methyl-5-(N-(4-carboxybenzyl)-N-phenethylsulfamoyl)benzofuran-2-carboxylic acid] | 50 to 100 µM | 254 to 255 °C |
| Cc1c(C(=O)O)oc2ccc(S(=O)(=O)N(CCc3ccccc3)Cc3ccc(C(N)=O)cc3)cc12 [Example F27-S33, 3-methyl-5-(N-(4-carbamoylbenzyl)-N-phenethylsulfamoyl)benzofuran-2-carboxylic acid] | 50 to 100 µM | > 380 °C (dec.) |
| Cc1c(C(=O)O)oc2ccc(S(=O)(=O)N(CCc3ccccc3)Cc3ccccc3N3CCNCC3)cc12 [Example F27-S97, 3-methyl-5-(N-(2-(piperazin-1-yl)benzyl)-N-phenethylsulfamoyl)benzofuran-2-carboxylic acid] | 50 to 100 µM | 223 to 224 °C |
| Cc1c(C(=O)O)oc2ccc(S(=O)(=O)N(CCc3ccccc3)Cc3ccc(Cl)cc3Cl)cc12 [Example F27-S60, 3-methyl-5-(N-(2,4-dichlorobenzyl)-N-phenethylsulfamoyl)benzofuran-2-carboxylic acid] | 10 to 50 µM | 177 to 178 °C |
| Cc1c(C(=O)O)oc2ccc(S(=O)(=O)N(CCc3ccccc3)Cc3cccc(F)c3)cc12 [Example F27-S20, 3-methyl-5-(N-(3-fluorobenzyl)-N-phenethylsulfamoyl)benzofuran-2-carboxylic acid] | 10 to 50 µM | > 380 °C (dec.) |
| Cc1c(C(=O)O)oc2ccc(S(=O)(=O)N(CCc3ccccc3)c3ccccc3N3CC[N+](C)(C)CC3)cc12 [Example F27-S90, 4-(2-((2-carboxy-3-methyl-N-phenethylbenzofuran)-5-sulfonylamino)phenyl)-1,1-dimethylpiperazin-1-ium] | 50 to 100 µM | 246 to 247 °C |
| Cc1c(C(=O)O)oc2ccc(S(=O)(=O)N(CCc3ccccc3)c3cccc(N4CCN(C)CC4)c3)cc12 [Example F27-S78, 3-methyl-5-(N-(3-(4-methylpiperazin-1-yl)phenyl)-N-phenethylsulfamoyl)benzofuran-2-carboxylic acid] | 50 to 100 µM | 232 to 233 °C |
| Cc1c(C(=O)O)oc2ccc(S(=O)(=O)N(CCc3ccccc3)Cc3ccc(Br)cc3C(F)(F)F)cc12 [Example F27-S59, 3-methyl-5-(N-(2-(trifluoromethyl)-4-bromobenzyl)-N-phenethylsulfamoyl)benzofuran-2-carboxylic acid] | 50 to 100 µM | 150 to 151 °C |
| Cc1c(C(=O)O)oc2ccc(S(=O)(=O)N(CCc3ccccc3)Cc3ccccc3N3CCN(S(C)(=O)=O)CC3)cc12 [Example F27-S102, 3-methyl-5-(N-(2-(4-(methylsulfonyl)piperazin-1-yl)benzyl)-N-phenethylsulfamoyl)benzofuran-2-carboxylic acid] | 50 to 100 µM | 150 to 151 °C |
| Cc1c(C(=O)O)oc2ccc(S(=O)(=O)N(CCc3ccccc3)Cc3ccccc3Cl)cc12 [Example F27-S15, 3-methyl-5-(N-(2-chlorobenzyl)-N-phenethylsulfamoyl)benzofuran-2-carboxylic acid] | 10 to 50 µM | 156 to 157 °C |
| Cc1c(C(=O)O)oc2ccc(S(=O)(=O)N(CCc3ccccc3)c3ccccc3N3CCN(Cc4ccccc4)CC3)cc12 [Example F27-S95] | 10 to 50 µM | 161 to 162 °C |
| Cc1c(C(=O)O)oc2ccc(S(=O)(=O)N(CCc3ccccc3)Cc3ccccc3Br)cc12 [Example F27-S16, 3-methyl-5-(N-(2-bromobenzyl)-N-phenethylsulfamoyl)benzofuran-2-carboxylic acid] | 10 to 50 µM | 170 to 171 °C |
| Cc1c(C(=O)O)oc2ccc(S(=O)(=O)N(CCc3ccccc3)Cc3cccc(N4CCN(C(=O)OC(C)(C)C)CC4)c3)cc12 [Example F27-S88, 3-methyl-5-(N-(3-(4-(tert-butoxycarbonyl)piperazin-1-yl)benzyl)-N-phenethylsulfamoyl)benzofuran-2-carboxylic acid] | 0.1 to 10 µM | 104 to 105 °C |
